Results published in patent publication US20050054018A1, “Activated checkpoint therapy and methods of use thereof” (priority 2002, published 2005).

Tests used:
DLD1 = test: Cancer cell line IC50, DLD1; format: cell-based; details: Homo sapiens, DLD-1; read-out: Cancer Cell Lines, IC50, Colon DLD1
Protocol: DLD1 cells were seeded into 6-well, 96-well plates and allowed to attach overnight. […] For the colony formation assay, colonies were allowed to grow for 14 days; MT assay cells continued in culture for an additional 2 days.

SW480 = test: Cancer cell line IC50, SW480; format: cell-based; details: Homo sapiens, read-out: Cancer Cell Lines, IC50, Colon SW480
MCF-7 = test: Cancer cell line IC50, MCF-7; format: cell-based; details: Homo sapiens, MCF7; read-out: Cancer Cell Lines, IC50, Breast MCF-7
Protocol: (§1) In this experiment, exponentially growing cells were seeded at 1000 cells/well and allowed to attach for 48 h. […] After 10-20 days, cells were fixed and stained with modified Wright-Giemsa stain.

PaCa-2 = test: Cancer cell line IC50, PaCa-2; format: cell-based; details: Homo sapiens, read-out: Cancer Cell Lines, IC50, Pancreas PaCa-2
A549 = test: Cancer cell line IC50, A549; format: cell-based; details: Homo sapiens, read-out: Cancer Cell Lines, IC50, Lung A549
HT-29 = test: Cancer cell line IC50, HT-29; format: cell-based; details: Homo sapiens, read-out: Cancer Cell Lines, IC50, Colon HT-29
NCM460 = test: Normal cell line, NCM460; format: cell-based; details: Homo sapiens, read-out: Normal Cell Lines, Colon NCM460
MCF10A = test: Normal cell line, MCF10A; format: cell-based; details: Homo sapiens, MCF-10A; read-out: Normal Cell Lines, Breast MCF10A
Protocol: as §1

[1] = test system: Normal Cell Lines vs Cancer Cell Lines; test: Fold selectivity, normal vs cancer cell lines; format: cell-based
human cancer cells = test: Combination with Taxol, cancer cell survival in vitro; format: cell-based; details: in the presence of β-Lapachone
[2] = test system: human multiple myeloma (MM) cells; test: MTT assay, multiple myeloma cells; format: cell-based; details: 4 μM, 24 h, all seven MM cell lines
[3] = test system: normal human Peripheral Blood Mononuclear Cells (PBMC); test: MTT assay, PBMC; format: cell-based; details: 0.5, 2, 4, and 8 μM, 24 h; fresh or proliferating PBMC
Protocol: Proliferating PBMC were generated by 72 h incubation with phytohemagglutinin (PHA) at 2 μg/mL.

[4] = test system: human breast cancer cells (MCF-7); test: Colony formation assay, MCF-7; format: cell-based; details: MCF-7, 4 h treatment, 2-4 μM and higher, 10-20 days
Protocol: as §1

[5] = test system: normal human breast epithelial cells (MCF-10A); test: Colony formation assay, MCF-10A; format: cell-based; details: 4 h treatment, 10-20 days
Protocol: as §1

[6] = test system: human colon cancer cell line DLD1; test: Colony formation and MTT assay, DLD1; format: cell-based; details: DLD1, 4 hour exposure, 4-5 μM
Protocol: DLD1 cells were seeded into 6-well, 96-well plates and allowed to attach overnight. […] Control cells were treated with DMSO equivalent to the highest dose of β-Lapachone used. For the colony formation assay, colonies were allowed to grow for 14 days; MT assay cells continued in culture for an additional 2 days.

[7] = test system: human colon carcinoma cells (DLD1); test: Flow cytometry sub-G1 apoptosis, DLD1; format: cell-based; details: DLD1, 2-4 μM, 24 h
Protocol: (§2) Cells were treated for 24 h, then were subjected to flow cytometric analysis after staining with propidium iodide.

[8] = test system: human colon carcinoma cells (SW480); test: Flow cytometry sub-G1 apoptosis, SW480; format: cell-based; details: SW480, 2-4 μM, 24 h
Protocol: as §2

[9] = test system: normal human colon cells (NCM460); test: Flow cytometry sub-G1 apoptosis, NCM460; format: cell-based; details: NCM460, 24 h
Protocol: as §2

cytochrome c = test: Western blot, cytochrome c release in DLD1; format: cell-based, human
PARP = test: Western blot, PARP cleavage; format: cell-based, human; details: after 4 hours of exposure
E2F [10] = test: Gel mobility shift assay, DLD1 nuclear proteins; format: cell-based, human; details: DLD1, 4 μM
Excerpt: (§3) The arrow denotes the location of the putative E2F protein-DNA complex.

E2F [11] = test: Gel mobility shift assay, NCM460 nuclear proteins; format: cell-based, human; details: NCM460, 4 μM, up to 2 hours
Excerpt: as §3

[12] = test system: human prostate cancer cells (PC-3); test: Colony survival, combination with GL331, PC-3; format: cell-based
Excerpt: (§4) The number of colonies in the control well (solvent-treated) was taken as 100% survival.

[13] = test system: human pancreatic cancer cells (Paca-2); test: Colony survival, combination with gemcitabine, Paca-2; format: cell-based; details: gemcitabine 5 μg/ml day 1 followed by β-lapachone 2 μM day 2
Excerpt: as §4

For `CC1(C)CCC2=C(S1)c1ccccc1C(=O)C2=O` [3,4-dihydro-2,2-dimethyl-2H-naphtho[1,2-b]thiopyran-5,6-dione], the IC50 (DLD1) was 2 µM, the IC50 (SW480) was 1.5 µM and the IC50 (MCF-7) was 1 µM. For the same molecule, the IC50 (PaCa-2) was 1.5 µM, the IC50 (A549) was 1.7 µM and the IC50 (HT-29) was 1.8 µM. For the same molecule, the IC50 (NCM460) was 7.5 µM, the IC50 (MCF10A) was 6.7 µM and the “Fold Selectivity” value [1] was “˜4.5”.
`CC(C)=CCC1CC2=C(OC1(C)C)c1ccccc1C(=O)C2=O` (stereo not shown) [3,4-dihydro-2,2-dimethyl-3-(3-methyl-2-butenyl)-2H-naphtho[1,2-b]pyran-5,6-dione] gave an IC50 (DLD1) of 1.3 µM, an IC50 (SW480) of 1.8 µM and an IC50 (MCF-7) of 1 µM. The IC50 (NCM460) was 10 µM and the “Fold Selectivity” value [1] was “˜7”.
For `CC1(C)CCSC2=C1C(=O)C(=O)c1ccccc12` [3,4-dihydro-4,4-dimethyl-2H-naphtho[1,2-b]thiopyran-5,6-dione], the IC50 (PaCa-2) was 1.2 µM, the IC50 (A549) was 1.6 µM and the IC50 (HT-29) was 1.6 µM. The IC50 (NCM460) was 6 µM, the IC50 (MCF10A) was 6.3 µM and the “Fold Selectivity” value [1] was “˜4”.
In the case of `CC(=O)O[C@H]1C(=O)[C@@]2(C)[C@H]([C@H](OC(=O)c3ccccc3)[C@]3(O)C[C@H](OC(=O)[C@H](O)[C@@H](NC(=O)c4ccccc4)c4ccccc4)C(C)=C1C3(C)C)[C@]1(OC(C)=O)CO[C@@H]1C[C@@H]2O` [Taxol®, paclitaxel], the “reduction of effective Taxol concentration” value (human cancer cells) is reported as “at least 10 fold”.
Work on `CC1(C)CCC2=C(O1)c1ccccc1C(=O)C2=O` [β-lapachone, 3,4-dihydro-2,2-dimethyl-2H-naphtho[1,2-b]pyran-5,6-dione] yielded an IC50 (DLD1) of 3.6 µM, an IC50 (SW480) of 3.3 µM and an IC50 (MCF-7) of 1 µM. It also gave an IC50 (PaCa-2) of 1.6 µM, an IC50 (HT-29) of 2.1 µM and an IC50 (NCM460) of 8.1 µM. For the same molecule, the IC50 (MCF10A) was 5.8 µM, the “cell viability in cultures (MTT)” value [2] was “significantly decreased” and the “cytotoxicity to PBMC growth (MTT)” value [3] was “No cytotoxicity”. The colonies [4] was “essentially complete elimination of colonies”, the number of colonies [5] was “no reduction in the number of colonies” and the “size of the colonies” value [5] was “smaller”. For the same molecule, the “viable cells (colony formation and MTT assay)” value [6] was “eliminates viable cells”, the “apoptosis (sub-G1 fraction)” value [7] was “induce apoptosis” and the “apoptosis (sub-G1 fraction)” value [8] was “induce apoptosis”. The “apoptosis (sub-G1 fraction)” value [9] was “no apoptosis”, the “time of peak cytochrome c release” value (cytochrome c; DLD1) was 2 h and the “exposure time to cytochrome c release” value (cytochrome c; DLD1, earliest release) was 1 h. For the same molecule, the PARP cleavage (PARP) was “cleavage of PARP”, the “nuclear E2F protein levels vs. starting levels” value (E2F [10]; 0.5 hours) was “increased” and the “nuclear E2F protein levels vs. starting levels” value (E2F [10]; 1 hour) was “markedly elevated”. The “level of E2F expression” value (E2F [11]) was “essentially unchanged”, the “colony survival, combination with GL331” value ([12]; β-lapachone 2 μM and GL331 2 μM simultaneously, 4 h) was “complete eradication of colony forming units” and the “colony survival, combination with GL331” value ([12]; β-lapachone 2 μM day 1 followed by GL331 2 μM day 2) was “complete eradication of colony forming units”. For the same molecule, the “colony survival, combination with gemcitabine” value [13] was “complete eradication of colony forming units”.
